In patent publication US20060069132A1, “Azolecarboxamide herbicides” (priority 2004, published 2006):

Legend:
ducksalad [1] = assay: Test C flooded paddy test; type: in vivo, Heteranthera limosa
wheat = assay: Test B postemergence herbicide test; type: in vivo, Triticum aestivum; set-up: key to Wheat plant response rating: 0 = no effect, 100 = complete control; details: postemergence, 500 g ai/ha; visual rating, scale 0 (no effect) to 100 (complete control)
Outline: (§1)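 After treating 2-leaf paddy plants or 2–18 cm postemergence plants (1 to 4 leaves) with formulated chemical, researchers kept them in a greenhouse for 13–15 days. Effects were judged visually versus controls: 0 indicates none, 100 total control.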

rice [2] = assay: Test C flooded paddy test; type: in vivo, Oryza sativa
Outline: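 Plants were grown to the 1- to 4-leaf stage (2–18 cm) and then treated postemergence, or grown to the 2-leaf stage for the flooded paddy test. They were held in a greenhouse for 12 to 14 days and then scored by eye against controls, where 0 is no effect and 100 is complete control.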

giant foxtail = assay: Test B pre-/postemergence herbicide test; type: in vivo, Setaria faberi; details: for Plant response rating, Foxtail, Giant: preemergence; for Foxtail, Giant plant response rating: postemergence, visual rating, scale 0 (no effect) to 100 (complete control)
Outline: (§2)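 Formulation: non-phytotoxic solvent mix with surfactant. Timing: preemergence on seed and postemergence on 2–18 cm plants, applied concurrently. Readout after 13–15 d greenhouse: visual 0–100 control rating against controls.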

velvetleaf = assay: Test B pre-/postemergence herbicide test; type: in vivo, Abutilon theophrasti; details: for Plant response rating, Velvetleaf: preemergence; for Velvetleaf plant response rating: postemergence, visual rating, scale 0 (no effect) to 100 (complete control)
Outline: as §2

morningglory = assay: Test B pre-/postemergence herbicide test; type: in vivo, Ipomoea coccinea; details: for Morningglory plant response rating: postemergence, visual rating, scale 0 (no effect) to 100 (complete control)
Outline: (§3)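 Species tested were Echinochloa crus-galli, Ipomoea coccinea, Xanthium strumarium and Oryza sativa, treated both before emergence and at the 1- to 4-leaf stage; rice and barnyardgrass were also tested under flooding at 2 leaves. Greenhouse incubation lasted 13–15 days before visual 0–100 scoring.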

barnyardgrass [3] = assay: Test B pre-/postemergence herbicide test; type: in vivo, Echinochloa crus-galli; details: for Plant response rating, Barnyardgrass: preemergence; for Barnyardgrass plant response rating: postemergence, visual rating, scale 0 (no effect) to 100 (complete control)
Outline: as §3

large crabgrass = assay: Test B pre-/postemergence herbicide test; type: in vivo, Digitaria sanguinalis; details: for Plant response rating, Crabgrass, Large: preemergence; for Crabgrass, Large plant response rating: postemergence, visual rating, scale 0 (no effect) to 100 (complete control)
Outline: as §2

barnyardgrass [4] = assay: Test B flooded paddy test; type: in vivo, Echinochloa crus-galli; details: 1000 g ai/ha, visual rating, scale 0 to 100 (0 no effect, 100 complete control), 13 to 15 days
Outline: (§4)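 Plants grow to 1- to 4-leaf stage (2–18 cm) for postemergence spraying, or to 2-leaf stage for the paddy test. Formulated compound is applied. Greenhouse holding lasts 13–15 days. Response is scored visually relative to controls, 0 no effect to 100 complete control; a dash means no result.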

[5] = tested on: smallflower umbrella sedge; assay: Test C flooded paddy test; type: in vivo, Cyperus difformis
[6] = tested on: small flower umbrella sedge; assay: Test B flooded paddy test; type: in vivo, Cyperus difformis; details: 1000 g ai/ha, visual rating, scale 0 to 100 (0 no effect, 100 complete control), 13 to 15 days
Outline: as §4

barnyardgrass [7] = assay: Test C flooded paddy test; type: in vivo, Echinochloa crus-galli
Outline: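 Weeds and wheat were sprayed after emergence, at a height of 2 to 18 cm (1–4 leaves), and paddy barnyardgrass was flooded and treated at two leaves. Assessment took place 12–14 days later in the greenhouse on a 0-to-100 visual control scale. A dash means no result was obtained.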

rice [8] = assay: Test B pre-/postemergence herbicide test; type: in vivo, Oryza sativa; details: preemergence
Outline: as §2

corn = assay: Test B pre-/postemergence herbicide test; type: in vivo, Zea mays; details: for Plant response rating, Corn: preemergence; for Corn plant response rating: postemergence, visual rating, scale 0 (no effect) to 100 (complete control)
Outline: as §2

rice [9] = assay: Test B flooded paddy test; type: in vivo, Oryza sativa; details: 1000 g ai/ha, visual rating, scale 0 to 100 (0 no effect, 100 complete control), 13 to 15 days
Outline: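 Scale 0–100: zero equals no visible effect, 100 complete control, judged by eye relative to controls. Timing: 13 to 15 days in greenhouse post-treatment. Growth stage at spraying: two leaves (paddy) or one to four leaves, 2–18 cm (postemergence).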

pigweed = assay: Test B pre-/postemergence herbicide test; type: in vivo, Amaranthus retroflexus; details: for Plant response rating, Pigweed: preemergence; for Pigweed plant response rating: postemergence, visual rating, scale 0 (no effect) to 100 (complete control)
Outline: as §2

wild oat = assay: Test B postemergence herbicide test; type: in vivo, Avena fatua; details: postemergence, visual rating, scale 0 (no effect) to 100 (complete control)
Outline: as §1

blackgrass = assay: Test B postemergence herbicide test; type: in vivo, Alopecurus myosuroides; details: postemergence, visual rating, scale 0 (no effect) to 100 (complete control)
Outline: as §4

cocklebur = assay: Test B pre-/postemergence herbicide test; type: in vivo, Xanthium strumarium; details: for Plant response rating, Cocklebur: preemergence; for Cocklebur plant response rating: postemergence, visual rating, scale 0 (no effect) to 100 (complete control)
Outline: as §3

ducksalad [10] = assay: Test B flooded paddy test; type: in vivo, Heteranthera limosa; details: 1000 g ai/ha, visual rating, scale 0 to 100 (0 no effect, 100 complete control), 13 to 15 days
Outline: as §4

lambsquarters = assay: Test B pre-/postemergence herbicide test; type: in vivo, Chenopodium album; details: for Plant response rating, Lambsquarters: preemergence; for Lambsquarters plant response rating: postemergence, visual rating, scale 0 (no effect) to 100 (complete control)
Outline: as §2

Surinam grass = assay: Test B pre-/postemergence herbicide test; type: in vivo, Urochloa decumbens; details: for Plant response rating, Surinam Grass: preemergence; for Surinam Grass plant response rating: postemergence, visual rating, scale 0 (no effect) to 100 (complete control)
Outline: as §2

[11] = 62 g ai/ha, scale 0 to 100 (0 no effect, 100 complete control)
[12] = 125 g ai/ha, scale 0 to 100 (0 no effect, 100 complete control)
[13] = 250 g ai/ha, scale of 0 to 100, 0 is no effect, 100 is complete control
[14] = 500 g ai/ha, visual rating after 12 to 14 days, scale 0 to 100 (0 no effect, 100 complete control)
[15] = 500 g ai/ha, visual rating 0-100, 0 no effect, 100 complete control
[16] = 125 g ai/ha, 0 to 100 scale, 0 is no effect, 100 is complete control

CCn1nc(C(C)(C)C)cc1C(=O)Nc1cc(C(=O)N2CC=CC2)ccn1 [Compound 142]
Ducksalad plant response rating (ducksalad [1]; [11]): 75 | Ducksalad plant response rating (ducksalad [1]; [12]): 90 | Ducksalad plant response rating (ducksalad [1]; [13]): 95 | Plant response rating, Ducksalad (ducksalad [1]; [14]): 100 | Wheat plant response rating (wheat): 10 | Rice plant response rating (rice [2]; [11]): 70 | Rice plant response rating (rice [2]; [12]): 70 | Rice plant response rating (rice [2]; [13]): 70 | Plant response rating, Rice (rice [2]; [14]): 70 | Plant response rating, Foxtail, Giant (giant foxtail; [15]): 100 | Foxtail, Giant plant response rating (giant foxtail; 125 g ai/ha): 30 | Foxtail, Giant plant response rating (giant foxtail; 500 g ai/ha): 30 | Plant response rating, Foxtail, Giant (giant foxtail; [16]): 60 | Plant response rating, Velvetleaf (velvetleaf; [15]): 100 | Velvetleaf plant response rating (velvetleaf; 125 g ai/ha): 10 | Velvetleaf plant response rating (velvetleaf; 500 g ai/ha): 60 | Plant response rating, Velvetleaf (velvetleaf; [16]): 80 | Plant response rating, Morningglory (morningglory; 500 g ai/ha, visual rating 0-100, 0 no effect, 100 complete control, preemergence): 30 | Morningglory plant response rating (morningglory; 125 g ai/ha): 0 | Morningglory plant response rating (morningglory; 500 g ai/ha): 50 | Plant response rating, Barnyardgrass (barnyardgrass [3]; [15]): 100 | Barnyardgrass plant response rating (barnyardgrass [3]; 125 g ai/ha): 0 | Barnyardgrass plant response rating (barnyardgrass [3]; 500 g ai/ha): 10 | Plant response rating, Barnyardgrass (barnyardgrass [3]; [16]): 70 | Plant response rating, Crabgrass, Large (large crabgrass; [15]): 100 | Crabgrass, Large plant response rating (large crabgrass; 125 g ai/ha): 0 | Crabgrass, Large plant response rating (large crabgrass; 500 g ai/ha): 10 | Plant response rating, Crabgrass, Large (large crabgrass; [16]): 80 | Barnyardgrass plant response rating (barnyardgrass [4]): 90 | Sedge, Umbrella plant response rating [5, 11]: 75 | Sedge, Umbrella plant response rating [5, 12]: 80 | Sedge, Umbrella plant response rating [5, 13]: 80 | Plant response rating, Sedge, Umbrella [5, 14]: 90 | Sedge, Umbrella plant response rating [6]: 80 | Barnyardgrass plant response rating (barnyardgrass [7]; [11]): 50 | Barnyardgrass plant response rating (barnyardgrass [7]; 125 g ai/ha, scale of 0 to 100, 0 is no effect, 100 is complete control): 65 | Barnyardgrass plant response rating (barnyardgrass [7]; [13]): 80 | Plant response rating, Barnyardgrass (barnyardgrass [7]; [14]): 90 | Plant response rating, Rice (rice [8]; [15]): 80 | Plant response rating, Rice (rice [8]; [16]): 30 | Plant response rating, Corn (corn; [15]): 0 | Corn plant response rating (corn; 125 g ai/ha): 0 | Corn plant response rating (corn; 500 g ai/ha): 0 | Plant response rating, Corn (corn; [16]): 0 | Rice plant response rating (rice [9]): 70 | Plant response rating, Pigweed (pigweed; [15]): 100 | Pigweed plant response rating (pigweed; 125 g ai/ha): 50 | Pigweed plant response rating (pigweed; 500 g ai/ha): 60 | Plant response rating, Pigweed (pigweed; [16]): 100 | Oat, Wild plant response rating (wild oat; 125 g ai/ha): 20 | Oat, Wild plant response rating (wild oat; 500 g ai/ha): 20 | Blackgrass plant response rating (blackgrass; 125 g ai/ha): 40 | Blackgrass plant response rating (blackgrass; 500 g ai/ha): 40 | Plant response rating, Cocklebur (cocklebur; [15]): 40 | Cocklebur plant response rating (cocklebur; 125 g ai/ha): 40 | Cocklebur plant response rating (cocklebur; 500 g ai/ha): 40 | Plant response rating, Cocklebur (cocklebur; [16]): 30 | Ducksalad plant response rating (ducksalad [10]): 90 | Plant response rating, Lambsquarters (lambsquarters; [15]): 100 | Lambsquarters plant response rating (lambsquarters; 125 g ai/ha): 60 | Lambsquarters plant response rating (lambsquarters; 500 g ai/ha): 80 | Plant response rating, Lambsquarters (lambsquarters; [16]): 100 | Plant response rating, Surinam Grass (Surinam grass; [15]): 60 | Surinam Grass plant response rating (Surinam grass; 125 g ai/ha): 10 | Surinam Grass plant response rating (Surinam grass; 500 g ai/ha): 20 | Plant response rating, Surinam Grass (Surinam grass; [16]): 10
